Measured values taken from PubChem BioAssay (NCI).
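Dose response: 5 concentrations. Exposure: 48 h. Format: 96-well plates. Endpoint: linear interpolation; highest concentration if not reached. GI50 = concentration required for 50% inhibition of growth. The concentration for full growth arrest is given as TGI.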

Experiments:
Experiment in all cases: inhibition of tumour cell growth, NCI panel, 48 h
SF-295 CNS = tested on: SF-295 CNS
HCC-2998 colon = tested on: HCC-2998 colon
CCRF-CEM leukemia = tested on: CCRF-CEM leukemia
A549 NSCLC = tested on: A549 NSCLC
HCT-116 colon = tested on: HCT-116 colon
HCT-15 colon = tested on: HCT-15 colon
SK-OV-3 ovarian = tested on: SK-OV-3 ovarian
HL-60(TB) leukemia = tested on: HL-60(TB) leukemia
OVCAR-8 ovarian = tested on: OVCAR-8 ovarian
OVCAR-4 ovarian = tested on: OVCAR-4 ovarian

Structure (SMILES)	GI50 (SF-295 CNS) [µM]	TGI (SF-295 CNS) [µM]	GI50 (HCC-2998 colon) [µM]	TGI (HCC-2998 colon) [µM]	GI50 (CCRF-CEM leukemia) [µM]	TGI (CCRF-CEM leukemia) [µM]	GI50 (A549 NSCLC) [µM]	TGI (A549 NSCLC) [µM]	GI50 (HCT-116 colon) [µM]	TGI (HCT-116 colon) [µM]	GI50 (HCT-15 colon) [µM]	TGI (HCT-15 colon) [µM]	GI50 (SK-OV-3 ovarian) [µM]	TGI (SK-OV-3 ovarian) [µM]	GI50 (HL-60(TB) leukemia) [µM]	TGI (HL-60(TB) leukemia) [µM]	GI50 (OVCAR-8 ovarian) [µM]	TGI (OVCAR-8 ovarian) [µM]	TGI (OVCAR-4 ovarian) [µM]	GI50 (OVCAR-4 ovarian) [µM]
CC1=C(C)C(=O)C(C(C)C2=C(C)C(=O)C(C)=C(C)C2=O)=C(C)C1=O	15.1	> 100	57.1	> 100	20.1	50.7	51	> 100	10.8	24.8	15.2	> 100	> 100	> 100	6.94	24.5	33.3	> 100		
CCOC(=O)C(=Cc1ccccc1Br)C(=O)OCC		8.88		6.54		> 100		> 100		> 100		3.71				4		5.6	16.5	
CC1SC(c2cccs2)N(NC(=O)C(O)c2ccccc2)C1=O (centres undefined)	> 100	> 100	> 100	> 100	> 100	> 100	> 100	> 100	> 100	> 100	> 100	> 100	> 100	> 100			> 100	> 100	> 100	> 100
NCCOc1ccccn1		> 100				> 100		> 100		> 100		> 100		> 100		> 100		> 100	> 100	
COc1ccc(-n2c(N)c(C(=O)NCCN3CCOCC3)c3nc4ccccc4nc32)cc1OC			94.3	> 100	5.15	> 100	6.08	> 100	3.49	> 100	15	> 100	85.5	> 100	21.8	> 100	6.94	> 100	> 100	68.5
Cc1cc2c(=O)cc(-c3ccc(Cl)cc3)oc2c(C(=O)O)c1C		> 100				> 100		> 100		> 100		> 100		> 100				> 100	> 100	
CO/N=C1/c2cc(OC)ccc2-c2c(NOC)nc3ccccc3c21	32.8	> 100	35.6	> 100	70.1	> 100	16	37.3	22.6	49.2	32.6	> 100			28.3	> 100	10.3	37	> 100	27.3
Cc1ccc(/C=C2\CCOC2=O)cc1					> 100	> 100	> 100	> 100	> 100	> 100	> 100	> 100	> 100	> 100	> 100	> 100	> 100	> 100	> 100	> 100
CCCCCCCCSC1=CC(=O)C(OC)=C(OC)C1=O	6.75	31.4	11.3	24.4			5.49	18.5	1.19	2.54	2.27	8.58	17.6	36.4	0.437	21.4	2.16	5.16	3.14	1.27
CCN1C(=O)N(c2c(F)c(OC)cc(OC)c2F)Cc2cnc3[nH]c(CN4CCOCC4)cc3c21	3.83	> 100			2.13	> 100	2.83	> 100	1.84	19.4	0.947	> 100			3.05	> 100	3.98	> 100	> 100	1.69
CCOc1ccc(NC(=O)C2=C(C)NC(C)=C(C(=O)Nc3ccc(OCC)cc3)C2c2ccc([N+](=O)[O-])cc2)cc1		> 100		52.7		90.8		> 100						> 100		52.7		> 100	> 100	
Cc1cc(Cl)ccc1N1C(=O)C(=O)C(c2nc3ccccc3s2)C(=O)C1=O		> 100				> 100		> 100		> 100		> 100		> 100		> 100		> 100	> 100	
CC(O)CN(CCN(CC(C)O)CC(C)O)CC(C)O.O=[N+]([O-])O.[Cu+2] (centres undefined)	9.07	> 100			> 100	> 100	46.5	> 100	> 100	> 100	> 100	> 100	> 100	> 100	> 100	> 100	> 100	> 100	> 100	73.6
C[Si](C)(C)/C(Br)=C\CCN1C(=O)CCC1O (centres undefined)		> 100				> 100		> 100		> 100		> 100		> 100				> 100	> 100	
O=C1c2cccnc2-c2nc(-c3ccc([N+](=O)[O-])cc3)cc3c2c1nc1ccccc13	4.47	15.4	8	26.5			2.58	8.3	2.56	> 26.1	1.97	8.04	11.4	39			1.5	6.76	30.7	13.4
CC(C)(C)c1cc(C(O)(C(F)(F)F)C(F)(F)F)c2c(c1)C(C(F)(F)F)(C(F)(F)F)OC(c1ccccc1)(C(C)(C)C)N2 (centres undefined)		19.8		21.1				> 100		13.2		13.7		7.39				26.2	46.3	
NS(=O)(=O)c1ccc(-n2nc(-c3ccc(Cl)cc3)cc2C2=CC(=O)C=CC2=O)cc1	25.1	63.2	18.3	33	3.57	> 100	30	> 100			16.1	32.2			34	> 100	24.2	73.7		
